Data: US8754119B2, “Use of rotigotine for the treatment of depression” (priority 2003, dated 2014)
“Also recorded” adds a separate entry of the source.

What was measured:
a2 receptors [1] = experiment: binding to a2 receptors
5HT1A receptor [2] = molecular target: T1, 5HT1A receptor (Homo sapiens, UniProt P08908); experiment: binding to 5HT1A receptor
T1 sequence (P08908 1-422): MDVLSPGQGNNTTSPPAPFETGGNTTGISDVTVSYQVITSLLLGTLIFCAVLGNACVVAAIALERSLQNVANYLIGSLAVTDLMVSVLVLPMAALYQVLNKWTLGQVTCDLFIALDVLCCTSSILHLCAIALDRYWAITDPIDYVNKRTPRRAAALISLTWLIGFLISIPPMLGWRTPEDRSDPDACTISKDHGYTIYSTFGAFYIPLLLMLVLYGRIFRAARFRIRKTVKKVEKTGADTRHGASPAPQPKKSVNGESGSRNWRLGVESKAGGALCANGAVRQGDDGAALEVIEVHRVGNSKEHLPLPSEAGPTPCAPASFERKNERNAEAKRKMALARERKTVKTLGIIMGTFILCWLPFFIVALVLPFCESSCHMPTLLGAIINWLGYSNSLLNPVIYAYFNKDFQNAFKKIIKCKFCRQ

a2 receptors [3] = experiment: functional action on a2 receptors; assay type: biochemical
5HT1A receptor [4] = molecular target: T1, 5HT1A receptor; experiment: functional activity on 5HT1A receptors; assay type: biochemical
rats = experiment: forced swim test; assay type: in vivo; conditions: subcutaneously applied
Text: The “forced swim test” is an animal model, in which depressive episodes are triggered by acute stress. In this case, rats are forced to swim in a limited space. After initial attempts to save themselves, in which the animals grasp the hopelessness, they lapse into immobility. On repetition of the experiment, the animals remain immobile from the beginning of the experiment. In the event of pre-treatment with antidepressants, the period of immobility is shortened during the repetition experiment; the animals generally start searching and escape movements directly after transfer into the water basin (Porsolt, Biomedicine 30, 1979, 139).

Sprague-Dawley rats = experiment: bulbectomy study (olfactory bulb removed, locomotor activity); assay type: in vivo
Protocol: In a further animal model (Embodiment 3) an investigation was made as to whether the antidepressive effects of rotigotine can be distinguished from a general motor stimulation. In this case, rotigotine was administered to rats, whose olfactory bulb had been removed on both sides. The removal of the olfactory bulb leads in the untreated control group to an adaptive hyperactivity. It is known from the literature that chronically administered antidepressants lead to a reduction in movement activity of the animals in this model, while stimulants further increase the motor activity (van Riezen H et al., Br. J. Pharmacol. 60(4), 1977, 521; Kelly J P et al., Pharmacol. Ther. 74(3), 1997, 299). Therefore, it is possible to discriminate between antidepressive and non-specific stimulatory effects of an active ingredient with this model. […] The bulbectomy study was carried out on Sprague-Dawley rats. A group, which had seemingly been operated on, served as a control group and was operated on without the olfactory bulb being removed. 14 days after the operation, the rats were treated with excipients, rotigotine depot suspension (every second day) or imipramine. On test days, the rats were taken onto a test field and left to themselves for 3 minutes. The locomotor activities of the animals were measured here with the aid of the number of lines crossed.

## CCCN(CCc1cccs1)C1CCc2c(O)cccc2C1 (single isomer, unassigned; (-)) [rotigotine, (−)-5,6,7,8-tetrahydro-6-[propyl[2-(2-thienyl)ethyl]amino]-1-naphthol]
a2 receptors [1]
  binding to a2 receptors: binds
5HT1A receptor [2]
  binding to the 5HT1A receptor: binds
a2 receptors [3]
  mode of action on a2 receptors: acts antagonistically
5HT1A receptor [4]
  mode of action on 5HT1A receptors: agonistic activity
rats
  period of immobility: clear reduction in the immobility period
rats; listed as Rotigotine
  period of immobility: significantly shortened period of immobility
Sprague-Dawley rats; bulbectomised rats, low doses
  bulbectomy-induced locomotor hyperactivity: virtually complete suppression of the bulbectomy-induced locomotor hyperactivity; also recorded: significantly reduces the motor hyperactivity
Sprague-Dawley rats; higher doses, bulbectomised and control animals
  locomotor activity: stimulatory dopamine-agonistic effect predominates; also recorded: non-specific activation of the locomotor activity dominates
